Where two headings read alike, the source gives them in different places.
Columns and labels:
HIF1a = conditions: cited from earlier work
HIF/p300 complex = HIF/p300 complex (Homo sapiens, UniProt Q09472); conditions: cited from earlier work
[1] = system: 786-O xenografts (renal cell carcinoma); experiment: Mouse xenograft study, 786-O renal cell carcinoma; assay type: in vivo, mice
Procedure: Mouse xenograft study was conducted to evaluate the primary endpoint of efficacy (reduction in tumor volume of >50% as compared to control) and the secondary endpoint of survival (Kaplan-Meier). Tumors were established in the flank region and grown to about 100 mm^3 The mice were treated with compound 1 in the 786-O xenografts (renal cell carcinoma) at 1 mg/kg given IV. The compound was injected every fourth day for 45 days (a total of 11 injections, see following table).
All tumors were imaged at the end of the study and harvested for histopathology studies. Percentages of tumor volumes in control and compound 1—treated mice measured throughout the entire duration of the experiments. Error bars are ±SEM of each experimental group.
After the last treatment with compound 1, mice were injected with the tumor-targeting near-infrared (NIR) contrast agent IR-783, anesthetized and imaged on a Xenogen IVIS 200 small animal imager. The fluorescence output was processed with Living Image software with one representative sample for each group presented above.

[2] = Intravenous pharmacokinetic study, observation for adverse symptoms; assay type: in vivo, male and female BALB/c mice; conditions: intravenous 1.0 mg/kg b.w., observed up to 24 hours post dose
Procedure: Non-fasted animals (Male and Female BALB/c mice or SD rats, ten groups, three animals per group) were administered with compound 1 in vehicle (5% (v/v) N,N-Dimethylacetamide, 50% (v/v) of 60% (w/v) Hydroxypropyl beta-Cyclodextrin, 45% (v/v) Sterile water for injection) by intravenous route with various doses 0.5, 1, 2.5, and 5 mg/kg body weight at dose volume of 10 mL/kg body weight. Under mild isoflurane anesthesia, blood specimens were collected into pre-labeled tubes containing anticoagulant (K2EDTA—2 mg/mL blood) at various time points (0.08, 0.16, 0.25, 0.50, 1.00, 2.00, 4.00, 6.00, 8.00 and 24.00 hours). Collected blood specimens were centrifuged at 4000 rpm, 4° C. for 10 minutes and plasma was separated and stored at −80° C. until analysis.

[3] = Human microsome stability; assay type: in vitro ADME
[4] = Maximum tolerated dose study; assay type: in vivo, male BALB/c mice; conditions: for MTD at 14 days: male, BALB/c, mouse, in vivo
Procedure: Three groups of three animals (male BALB/c mice) were administered increasing doses of compound 1 every other day for 14 days and the animals checked daily for the signs of moribundity, mortality, vocalization, and gross weight or body shape abnormalities. Dose escalation of compound 1 was performed according to the “modified Fibonacci search” scheme, compound 1 (x=2 mg/kg) was dosed at 4, 6.6, 10, 14, 24 and 32 mg/kg on Days 0, 2, 4, 6, 8 and 10. […] An average MTD of 21.1 mg/kg for the three groups combined was determined from this study.

Plasma protein binding = assay type: in vitro ADME
[5] = Oral pharmacokinetic study, bioavailability; assay type: in vivo; conditions: rat, plasma, 5 mg/kg b.w., Male SD rats
Procedure: Fasted animals (Male and Female BALB/c mice or SD rats, ten groups, three animals per group) were administered with compound 1 in vehicle (5% (v/v) N,N-Dimethylacetamide, 50% (v/v) of 60% (w/v) Sulfobutyl ether beta-cyclodextrin (SBEβCD) and 45% (v/v) Sterile water for injection) by oral route with a dose of 2.5, 5, and 10 mg/kg body weight at dose volume of 10 mL/kg b.w. Under mild isoflurane anesthesia, blood specimen were collected into pre-labeled tubes containing anticoagulant (K2EDTA—2 mg/mL blood) at various time points (0.08, 0.16, 0.25, 0.50, 1.00, 2.00, 4.00, 6.00, 8.00 and 24.00 hours). Collected blood specimens were centrifuged at 4000 rpm, 4° C. for 10 minutes and plasma was separated and stored at −80° C. until analysis.

multiple CYP = experiment: Standard CYP inhibition assays; assay type: in vitro ADME; conditions: each assay
Procedure: (§1) The Log D7.4 value of compound 1 was measured to be 2.69 under standard experimental conditions. Inhibition of multiple CYP was measured for compound 1 using standard CYP inhibition assays.

Log D7.4 measurement = assay type: physicochemical; conditions: pH 7.4; standard experimental conditions
Procedure: as §1

Chain of HIF/p300 complex (Q09472 whole entry, one chain of several): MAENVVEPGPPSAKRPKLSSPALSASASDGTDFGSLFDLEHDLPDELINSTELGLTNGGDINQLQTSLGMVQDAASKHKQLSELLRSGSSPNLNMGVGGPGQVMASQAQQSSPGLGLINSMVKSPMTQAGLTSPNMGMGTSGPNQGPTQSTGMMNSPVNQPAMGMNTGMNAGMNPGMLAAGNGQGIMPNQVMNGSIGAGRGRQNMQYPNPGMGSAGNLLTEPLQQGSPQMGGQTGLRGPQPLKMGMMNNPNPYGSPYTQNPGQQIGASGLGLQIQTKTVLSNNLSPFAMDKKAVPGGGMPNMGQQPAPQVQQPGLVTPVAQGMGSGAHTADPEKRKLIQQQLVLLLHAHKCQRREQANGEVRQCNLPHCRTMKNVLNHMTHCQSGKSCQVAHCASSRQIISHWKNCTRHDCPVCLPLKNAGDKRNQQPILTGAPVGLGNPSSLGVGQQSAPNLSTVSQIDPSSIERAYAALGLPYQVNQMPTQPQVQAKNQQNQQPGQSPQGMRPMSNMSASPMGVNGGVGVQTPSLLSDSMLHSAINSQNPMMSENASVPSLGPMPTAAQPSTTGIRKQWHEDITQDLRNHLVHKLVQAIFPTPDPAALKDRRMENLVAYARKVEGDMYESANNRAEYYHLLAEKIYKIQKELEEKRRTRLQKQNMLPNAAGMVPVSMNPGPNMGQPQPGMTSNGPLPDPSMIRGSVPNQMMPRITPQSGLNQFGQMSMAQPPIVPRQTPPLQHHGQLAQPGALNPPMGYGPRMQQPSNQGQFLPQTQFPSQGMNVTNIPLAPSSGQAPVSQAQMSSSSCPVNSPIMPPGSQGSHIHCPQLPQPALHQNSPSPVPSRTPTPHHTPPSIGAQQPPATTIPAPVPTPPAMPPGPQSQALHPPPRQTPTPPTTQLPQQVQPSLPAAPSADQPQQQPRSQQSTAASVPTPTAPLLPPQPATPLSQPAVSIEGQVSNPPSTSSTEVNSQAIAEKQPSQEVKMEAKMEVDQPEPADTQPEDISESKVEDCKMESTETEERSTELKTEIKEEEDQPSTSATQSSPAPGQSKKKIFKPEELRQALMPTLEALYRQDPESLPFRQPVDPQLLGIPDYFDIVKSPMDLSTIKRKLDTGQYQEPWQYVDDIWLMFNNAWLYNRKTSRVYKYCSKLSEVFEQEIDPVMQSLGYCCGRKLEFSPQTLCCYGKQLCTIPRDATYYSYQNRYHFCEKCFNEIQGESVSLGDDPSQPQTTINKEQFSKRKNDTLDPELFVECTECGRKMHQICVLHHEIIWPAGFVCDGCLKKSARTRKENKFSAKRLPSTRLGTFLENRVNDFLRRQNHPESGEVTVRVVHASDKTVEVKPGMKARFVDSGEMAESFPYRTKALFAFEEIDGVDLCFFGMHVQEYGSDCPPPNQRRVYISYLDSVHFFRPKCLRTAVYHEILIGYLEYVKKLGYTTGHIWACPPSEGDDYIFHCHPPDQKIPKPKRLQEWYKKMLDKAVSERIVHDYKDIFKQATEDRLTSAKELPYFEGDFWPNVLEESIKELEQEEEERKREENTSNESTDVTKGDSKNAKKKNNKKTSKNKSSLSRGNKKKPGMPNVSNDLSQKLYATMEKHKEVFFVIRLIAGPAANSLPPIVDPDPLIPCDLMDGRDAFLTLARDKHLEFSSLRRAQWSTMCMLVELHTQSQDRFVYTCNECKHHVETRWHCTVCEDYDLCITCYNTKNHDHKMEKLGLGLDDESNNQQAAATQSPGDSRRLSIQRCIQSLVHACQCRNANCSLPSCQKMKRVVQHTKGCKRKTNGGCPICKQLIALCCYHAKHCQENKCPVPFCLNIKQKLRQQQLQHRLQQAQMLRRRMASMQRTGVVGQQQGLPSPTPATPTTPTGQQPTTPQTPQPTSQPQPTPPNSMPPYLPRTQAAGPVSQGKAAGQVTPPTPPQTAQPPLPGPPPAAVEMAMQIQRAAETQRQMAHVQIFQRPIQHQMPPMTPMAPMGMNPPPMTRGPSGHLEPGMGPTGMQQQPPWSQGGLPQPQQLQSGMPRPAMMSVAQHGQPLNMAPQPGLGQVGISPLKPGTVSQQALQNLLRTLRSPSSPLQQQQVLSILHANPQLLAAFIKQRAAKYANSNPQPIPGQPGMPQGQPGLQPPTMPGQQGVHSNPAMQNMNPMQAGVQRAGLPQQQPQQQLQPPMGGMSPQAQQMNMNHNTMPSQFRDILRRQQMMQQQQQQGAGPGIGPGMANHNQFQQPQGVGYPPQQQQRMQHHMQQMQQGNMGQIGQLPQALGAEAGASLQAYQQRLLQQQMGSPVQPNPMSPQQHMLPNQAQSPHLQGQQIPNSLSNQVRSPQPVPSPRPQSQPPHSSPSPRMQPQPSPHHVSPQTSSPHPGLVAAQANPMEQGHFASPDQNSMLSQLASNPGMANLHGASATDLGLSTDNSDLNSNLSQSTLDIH

COc1cc2c(cc1O)CC[C@@H]1[C@@H]2CC[C@]2(C)[C@@H](O)CC[C@@H]12 [2-methoxyestradiol]
HIF1a levels in vitro (HIF1a): reduce HIFIa levels

CN1C(=O)[C@]2(Cc3cn([C@]45C[C@@]67SS[C@@](CO)(C(=O)N6[C@H]4Nc4ccccc45)N(C)C7=O)c4ccccc34)SS[C@@]1(CO)C(=O)N2C [chetomin]
inhibition of the HIF/p300 complex (HIF/p300 complex): potent and specific inhibition

CN1C(=O)[C@]2(Cc3ccc(CCc4ccc(C[C@@]56SS[C@@](CO)(C(=O)N5C)N(C)C6=O)cc4)cc3)SS[C@@]1(CO)C(=O)N2C (racemic) [Compound 1, (±)-4,4′-((ethane-1,2-diylbis(4,1-phenylene))bis(methylene))bis(1-(hydroxymethyl)-5,7-dimethyl-2,3-dithia-5,7-diazabicyclo[2.2.2]octane-6,8-dione)]
median tumor volume increase ([1]; 786-O xenografts in mice, 46 day experiment, control group 288%, P<0.01): 113% | intensity of the NIR signal from tumor-accumulated contrast agent IR-783 compared to control group ([1]; after last treatment, Xenogen IVIS 200 imaging): significantly lower intensity | weight loss ([1]; during the 45 day experiment): 5-8% | adverse symptoms after dosing [2]: found to be normal | in vitro clearance, human microsome stability studies [3]: favorable in vitro clearance | human microsome stability T1/2 ([3]; in the presence of co-factor): short | signs of toxicity ([4]; 14 mg/kg dose, male BALB/c mice): no signs of toxicity | signs of toxicity ([4]; 24 mg/kg dose, male BALB/c mice): one animal exhibited signs of toxicity | animals affected per group of three (quantity not given) ([4]; Dose 4 mg/kg, Group 1): 0 | animals affected per group of three (quantity not given) ([4]; Dose 4 mg/kg, Group 2): 0 | animals affected per group of three (quantity not given) ([4]; Dose 4 mg/kg, Group 3): 0 | animals affected per group of three (quantity not given) ([4]; Dose 6.6 mg/kg, Group 1): 0 | animals affected per group of three (quantity not given) ([4]; Dose 6.6 mg/kg, Group 2): 0 | animals affected per group of three (quantity not given) ([4]; Dose 6.6 mg/kg, Group 3): 0 | animals affected per group of three (quantity not given) ([4]; Dose 10 mg/kg, Group 1): 0 | animals affected per group of three (quantity not given) ([4]; Dose 10 mg/kg, Group 2): 0 | animals affected per group of three (quantity not given) ([4]; Dose 10 mg/kg, Group 3): 0 | animals affected per group of three (quantity not given) ([4]; Dose 14 mg/kg, Group 1): 0 | animals affected per group of three (quantity not given) ([4]; Dose 14 mg/kg, Group 2): 0 | animals affected per group of three (quantity not given) ([4]; Dose 14 mg/kg, Group 3): 0 | animals affected per group of three (quantity not given) ([4]; Dose 24 mg/kg, Group 1): 0 | animals affected per group of three (quantity not given) ([4]; Dose 24 mg/kg, Group 2): 1 | animals affected per group of three (quantity not given) ([4]; Dose 24 mg/kg, Group 3): 1 | animals affected per group of three (quantity not given) ([4]; Dose 32 mg/kg, Group 1): 3 | animals affected per group of three (quantity not given) ([4]; Dose 32 mg/kg, Group 2): 3 | animals affected per group of three (quantity not given) ([4]; Dose 32 mg/kg, Group 3): 3 | MTD at 14 days ([4]; Group 1, read-out: MTD): 25.3 mg/kg | MTD at 14 days ([4]; Group 2, read-out: MTD): 19 mg/kg | MTD at 14 days ([4]; Group 3, read-out: MTD): 19 mg/kg | MTD at 14 days ([4]; three groups combined, male BALB/c mice, read-out: Average MTD): 21.1 mg/kg | plasma protein binding (Plasma protein binding): highly protein bound | bioavailability [5]: 28% | IC50 (multiple CYP): > 5 µM | logD (Log D7.4 measurement): 2.69

Reference: patent US20150284349A1 (priority 2013, published 2015)
